Patent US20250188075A1, “SUBSTITUTED HETEROCYCLIC CSNK1 INHIBITORS” (The Broad Institute, Inc., priority 2022, published 2025)

Tests used:
LoVo cells = assay: LoVo cell proliferation assay, CTG method; format: cell-based; conditions: Homo sapiens, 96 h, median, read-out: 2D-PROLI LoVo CTG 96 h, IC50 - [mol/l] (median)
Procedure: CELL PROLIFERATION ASSAY CTG METHOD, 384-well version: Day 1: plate 400 cells/30 μL/well in growth medium (RPMI 1640 (Gibco #61870-10; with Glutamax)+10% FBS) in 384-well black plates (Corning #3571). Plated sister wells in a separate plate for time zero determination. Incubated all plates overnight at 37° C. Day 2: added test compounds in serial dilutions using the HP D300 Digital Dispenser and incubate at 37° C. for 96 h. Measured time zero plate: add 30 μL/well CTG solution (Promega CellTiter-Glo solution (catalog #G7573)) to wells in time zero plate; incubated for 2 minutes in a orbital shaker to induce cell lysis; allowed the plate to incubate at room temperature for additional 10 min to stabilize luminescent signal and read luminescence on PheraStar (rapid mode-0.02 sec/well; GAIN 3000). Day 6: Added 30 μL/well CTG solution to all test wells, incubated for 2 minutes in a orbital shaker to induce cell lysis; allowed the plate to incubate at room temperature for additional 10 min to stabilize luminescent signal and read luminescence on PheraStar (rapid mode-0.02 sec/well; GAIN 3000). Proliferation IC50s were calculated using the DRC application in ShiNy Analysis Platform-SNAP.”

total-p53 in MCF-7 cells = assay: HTRF total-p53 in MCF-7 cells; format: cell-based; conditions: Homo sapiens, MCF7, 2 h incubation, median, read-out: HTRF total-p53 MCF-7, IC50 - [mol/l] (median)
Procedure: Day 1: MCF-7 cells were seeded (10,000 cells in 12 μl/well) in a 384-well-Small Volume-plate (Greiner Bio One #784075) in culture medium (RPMI 1640; (Biochrom; #F 1275; without PhenolRed)+FCS (final: 10%); (Biochrom; #S 0415)+Insulin (bovine); (final: 10 μg/mL, Biochrom; #K 3510)+L-Alanyl-L-Glutamine; (final: 2 mM, Biochrom; #K 0302)+Natriumpyruvat; (final: 1 mM, Biochrom; #L 0473)+Non Essentiell Amino Acids; (final: 1×, Biochrom; #K 0293)). The cells were then treated with different compounds or DMSO (added with the HP Dispenser) and incubated for 2 h at 37° C. Following incubation, the cells were lysed in 4 μl of lysis buffer for 1 h shaking at RT. Finally, 4 μl of antibody solution was added and the samples are incubated overnight at RT, shaking.
Total-p53 was detected in a sandwich assay format using 2 different specific antibodies, one labeled with Eu3+-Cryptate (donor) and the second with d2 (acceptor). Kit: HTRF total p53 detection assay (Cisbio Cat: 64T53PEG).
Day 2: the plate was read on PHERAstar FS (BMG Labtech settings; optic module: HTRF; integration start: 60 us; integration time: 400 μs; flash lamp). IC50 values were calculated using the DRC application in ShiNy Analysis Platform-SNAP.”

human CSNK1D = human CSNK1D (Homo sapiens (Human), UniProt P48730); assay: CSNK1D assay (ADP-Glo, 1 μM ATP); format: biochemical; conditions: median, read-out: CSNK1D IC50 [mol/l] (median)
Procedure: CSNK1D-inhibitory activity of compounds of the present invention in presence of 1 μM adenosine-tri-phosphate (ATP) was quantified employing the CSNK1D assay as described in the following paragraphs. In essence, the enzyme activity is measured by quantification of the adenosine-di-phosphate (ADP), which is generated as a co-product of the enzyme reaction, via the “ADP-Glo™ Kinase Assay” kit from the company Promega. This detection system works as follows: In a first step the ATP not consumed in the kinase reaction is quantitatively converted to CAMP employing an adenylate cyclase (“ADP-Glo-reagent”), then the adenylate cyclase is stopped and the ADP generated in the kinase reaction converted to ATP which generates in a luciferase-based reaction a glow-luminescence signal (“Kinase Detection Reagent”).
Recombinant fusion protein of N-terminal Glutathion-S-Transferase (GST) and full-length human CSNK1D, expressed by baculovirus infected insect cells and purified via Glutathion affinity chromatography, was purchased from Life Technologies (product no. PV3665) and used as enzyme. As substrate for the kinase reaction the biotinylated peptide Btn-Ahx-SGSEGDSESGEEEG (C-terminus in amide form) was used which can be purchased e.g. from the company Biosyntan (Berlin-Buch, Germany).
For the assay 50 nl of a 100-fold concentrated solution of the test compound in DMSO was pipetted into a white 1536-well microtiter plate (Greiner Bio-One, Frickenhausen, Germany), 2 μL of a solution of CSNK1D in aqueous assay buffer [50 mM HEPES pH 7.5, 10% (v/v) glycerol, 10 mM MgCl2, 50 mM NaCl, 1 mM dithiothreitol, 0.01% (w/v) bovine serum albumin, 0.01% (v/v) Triton X-100] were added and the mixture was incubated for 15 min at 22° C. to allow pre-binding of the test compounds to the enzyme before the start of the kinase reaction. Then the kinase reaction was started by the addition of 3 μL of a solution of ATP (1.67 μM=>final conc. in the 5 μL assay volume is 1 μM) and peptide substrate (50 μM=>final conc. in the 5 μL assay volume is 30 μM) in assay buffer and the resulting mixture was incubated for a reaction time of 30 min at 22° C. The concentration of CSNK1D was adjusted depending of the activity of the enzyme lot and was chosen appropriate to have the assay in the linear range, a typical concentration is about 0.5 ng/μL. The reaction was stopped by the addition of 2.5 μL of “ADP-Glo-reagent” (1:1.5 fold diluted with water) and the resulting mixture was incubated at 22° C. for 1 h to convert the ATP not consumed in the kinase reaction completely to CAMP. Subsequently 2.5 μL of the “kinase detection reagent” (1.2 fold more concentrated than recommended by the producer) were added, the resulting mixture was incubated at 22° C. for 1 h and then the luminescence measured with a suitable measurement instrument (e.g. Viewlux™ from Perkin-Elmer). The amount of emitted light was taken as a measure for the amount of ADP generated and thereby for the activity of the CSNK1D.
The data were normalised (enzyme reaction without inhibitor=0% inhibition, all other assay components but no enzyme=100% inhibition).

Sequence of human CSNK1D (P48730 whole entry): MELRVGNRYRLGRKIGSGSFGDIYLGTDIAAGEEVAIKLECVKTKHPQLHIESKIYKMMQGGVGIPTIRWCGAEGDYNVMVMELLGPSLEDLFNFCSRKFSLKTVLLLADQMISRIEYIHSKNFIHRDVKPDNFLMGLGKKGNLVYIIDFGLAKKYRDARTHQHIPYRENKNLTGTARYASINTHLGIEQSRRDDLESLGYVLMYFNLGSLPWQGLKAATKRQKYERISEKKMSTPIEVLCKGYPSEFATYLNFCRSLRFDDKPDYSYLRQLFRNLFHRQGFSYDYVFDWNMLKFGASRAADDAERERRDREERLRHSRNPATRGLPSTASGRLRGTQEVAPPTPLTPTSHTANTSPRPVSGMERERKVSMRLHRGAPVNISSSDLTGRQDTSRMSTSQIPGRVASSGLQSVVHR

Row | SMILES | IC50 (LoVo cells) [µM] | IC50 (total-p53 in MCF-7 cells) [nM] | IC50 (human CSNK1D) [nM]
1 | Cn1cc(CC(=O)Nc2cc(-c3[nH]c4cccnc4c3-c3ccccn3)ccn2)cn1 [Example 2, 2-(1-methylpyrazol-4-yl)-N-[4-[3-(2-pyridyl)-^1H-pyrrolo[3,2-b]pyridin-2-yl]-2-pyridyl]acetamide] | 8.41 | 264 | 11.1
2 | Cc1nn(C)c(C)c1CC(=O)Nc1cc(-c2[nH]c3cccnc3c2-c2ccccn2)ccn1 [Example 17, N-[4-[3-(2-pyridyl)-^1H-pyrrolo[3,2-b]pyridin-2-yl]-2-pyridyl]-2-(1,3,5-trimethylpyrazol-4-yl)acetamide] | 5.66 | 198 | 6.87
3 | Cc1cc(CC(=O)Nc2cc(-c3[nH]c4cccnc4c3-c3ccccn3)ccn2)n(C)n1 [Example 14] | 3.75 | 143 | 4.88
4 | O=C(Cc1ccon1)Nc1cc(-c2[nH]c3cccnc3c2-c2ccccn2)ccn1 [Example 10, 2-isoxazol-3-yl-N-[4-[3-(2-pyridyl)-^1H-pyrrolo[3,2-b]pyridin-2-yl]-2-pyridyl]acetamide] | 3.24 | 262 | 5.6
5 | Cc1nn(C)cc1CC(=O)Nc1cc(-c2[nH]c3cccnc3c2-c2ccccn2)ccn1 [Example 9, 2-(1,3-dimethylpyrazol-4-yl)-N-[4-[3-(2-pyridyl)-^1H-pyrrolo[3,2-b]pyridin-2-yl]-2-pyridyl]acetamide] | 4.07 | 210 | 5.66
6 | Cn1cc(C(CC(F)F)C(=O)Nc2cc(-c3[nH]c4cccnc4c3-c3ccccn3)ccn2)cn1 (centres unmarked) [Example 19, 4,4-difluoro-2-(1-methylpyrazol-4-yl)-N-[4-[3-(2-pyridyl)-^1H-pyrrolo[3,2-b]pyridin-2-yl]-2-pyridyl]butanamide] | 5.5 | 407 | 13.9
7 | Cc1noc(C)c1CC(=O)Nc1cc(-c2[nH]c3cccnc3c2-c2ccccn2)ccn1 [Example 12, 2-(3,5-dimethylisoxazol-4-yl)-N-[4-[3-(2-pyridyl)-^1H-pyrrolo[3,2-b]pyridin-2-yl]-2-pyridyl]acetamide] | 6.81 | 205 | 5.02
8 | O=C(Cc1ccno1)Nc1cc(-c2[nH]c3cccnc3c2-c2ccccn2)ccn1 [Example 23, 2-isoxazol-5-yl-N-[4-[3-(2-pyridyl)-^1H-pyrrolo[3,2-b]pyridin-2-yl]-2-pyridyl]acetamide] | 5.41 | 120 | 4.68
9 | O=C(Cc1cnco1)Nc1cc(-c2[nH]c3cccnc3c2-c2ccccn2)ccn1 [Example 4] | 3.13 | 137 | –

These reach a lower IC50 (LoVo cells). Values come first.

Row | IC50 (LoVo cells) [µM] | IC50 (total-p53 in MCF-7 cells) [nM] | IC50 (human CSNK1D) [nM] | SMILES
10 | 0.363 | 184 | 5.01 | Cc1nc(CC(=O)Nc2cc(-c3[nH]c4cccnc4c3-c3ccccn3)ccn2)cs1 [Example 3, 2-(2-methylthiazol-4-yl)-N-[4-[3-(2-pyridyl)-^1H-pyrrolo[3,2-b]pyridin-2-yl]-2-pyridyl]acetamide]
11 | 0.177 | 41 | 3.44 | O=C(Cc1cnc2ccccc2n1)Nc1cc(-c2[nH]c3cccnc3c2-c2ccccn2)ccn1 [Example 6, N-[4-[3-(2-pyridyl)-^1H-pyrrolo[3,2-b]pyridin-2-yl]-2-pyridyl]-2-quinoxalin-2-yl-acetamide]
12 | 2 | 119 | 4.84 | O=C(Cc1ccns1)Nc1cc(-c2[nH]c3cccnc3c2-c2ccccn2)ccn1 [Example 22, 2-isothiazol-5-yl-N-[4-[3-(2-pyridyl)-^1H-pyrrolo[3,2-b]pyridin-2-yl]-2-pyridyl]acetamide]
13 | 1.37 | 184 | 4.93 | O=C(Cc1ccn(CC(F)(F)F)n1)Nc1cc(-c2[nH]c3cccnc3c2-c2ccccn2)ccn1 [Example 20, N-[4-[3-(2-pyridyl)-^1H-pyrrolo[3,2-b]pyridin-2-yl]-2-pyridyl]-2-[1-(2,2,2-trifluoroethyl)pyrazol-3-yl]acetamide]
